Structures are written as SMILES. Where two headings read alike, the source gives them in different places.

Assay [1] deals with T1, 5-HT2B receptor (Homo sapiens, UniProt P41595).
T1 construct: host or cells: CHO-K1
Kind of assay: cell-based.

For assay [2], the target named is T2, 5-HT2A receptor (Homo sapiens, UniProt P28223).
T2 construct: host or cells: HEK293
Kind of assay: FLIPR Ca2+ flux functional assay, 5-HT2A. The class given is cell-based. The procedure:
Activity at 5-HT2A, 5-HT2B and 5-HT2C receptors was determined using a FLIPR Ca^2+ flux assay at WuXi AppTec Co. Ltd. (Hong Kong) Discovery Biology Unit according to their standard protocols. Briefly, stably transfected cells expressing the receptor of interest (HEK293 for 5-HT2A and 5-HT2C; CHO-K1 for 5-HT2B) were grown and plated in a 384 well plate and incubated at 37° C. and 5% CO2 overnight. A 250 mM stock solution of probenecid in FLIPR calcium assay buffer (10 mL) was freshly prepared and combined with a fluorescent dye (Fluo-4 Direct) to give a final assay concentration of 2.5 mM. Reference compounds were 4-fold serially diluted and the screening compounds were 3-fold serially diluted in 100% DMSO for 10 points using Agilent Bravo, and 750 nL was added to a 384 well compound plate using Echo along with 30 μL assay buffer. The fluorescent dye was then added to the assay plate along with assay buffer to a final volume of […]. The cell plate was incubated for 50 min at 37° C. and 5% CO2 and placed into the FLIPR Tetra along with the compound plate. 10 μL of references and compounds were then transferred from the compound plate into the cell plate and the fluorescent signal was read.

Assay [3] addresses T3, 5-HT2C receptor (Homo sapiens, UniProt P28335).
T3 construct: host or cells: HEK293
T3 sequence (P28335 33-458): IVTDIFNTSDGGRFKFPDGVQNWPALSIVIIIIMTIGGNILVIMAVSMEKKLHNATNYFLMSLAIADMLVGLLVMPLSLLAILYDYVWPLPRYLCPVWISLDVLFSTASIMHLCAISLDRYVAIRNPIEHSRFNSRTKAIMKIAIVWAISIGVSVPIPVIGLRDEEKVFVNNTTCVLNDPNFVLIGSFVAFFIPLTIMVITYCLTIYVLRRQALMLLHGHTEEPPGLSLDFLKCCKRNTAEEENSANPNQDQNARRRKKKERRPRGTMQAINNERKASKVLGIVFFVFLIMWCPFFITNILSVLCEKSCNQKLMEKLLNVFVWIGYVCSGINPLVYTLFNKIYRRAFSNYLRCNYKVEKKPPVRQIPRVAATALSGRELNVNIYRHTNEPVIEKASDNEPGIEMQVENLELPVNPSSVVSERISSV
Nature of the assay: cell-based.

Where [4] appears, read: agonist activity, Ca2+ flux, CHO-K1 cells.
Where [5] appears, read: agonist activity, Ca2+ flux, CHO-K1 cells, read-out: 5-HT2B EC50.
[6] abbreviates: agonist activity, Ca2+ flux, HEK293 cells.
The mark [7] stands for this setting: agonist activity, Ca2+ flux, HEK293 cells, read-out: 5-HT2A EC50.
[8] abbreviates: agonist activity, Ca2+ flux, HEK293 cells, read-out: 5-HT2C EC50.

T1 sequence (P41595 whole entry): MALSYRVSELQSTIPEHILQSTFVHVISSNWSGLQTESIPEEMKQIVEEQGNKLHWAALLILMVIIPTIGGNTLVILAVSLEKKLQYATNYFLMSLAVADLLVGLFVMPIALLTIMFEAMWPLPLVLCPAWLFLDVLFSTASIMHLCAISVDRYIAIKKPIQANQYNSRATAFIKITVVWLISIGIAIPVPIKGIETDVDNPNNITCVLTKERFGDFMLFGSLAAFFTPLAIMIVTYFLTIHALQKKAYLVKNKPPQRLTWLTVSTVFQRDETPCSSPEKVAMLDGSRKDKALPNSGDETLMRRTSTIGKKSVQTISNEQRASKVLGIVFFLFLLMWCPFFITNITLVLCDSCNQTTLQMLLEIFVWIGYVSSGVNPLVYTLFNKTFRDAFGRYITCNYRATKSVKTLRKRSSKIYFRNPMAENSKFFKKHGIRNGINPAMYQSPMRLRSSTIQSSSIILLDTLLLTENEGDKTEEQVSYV
T2 sequence (P28223 whole entry): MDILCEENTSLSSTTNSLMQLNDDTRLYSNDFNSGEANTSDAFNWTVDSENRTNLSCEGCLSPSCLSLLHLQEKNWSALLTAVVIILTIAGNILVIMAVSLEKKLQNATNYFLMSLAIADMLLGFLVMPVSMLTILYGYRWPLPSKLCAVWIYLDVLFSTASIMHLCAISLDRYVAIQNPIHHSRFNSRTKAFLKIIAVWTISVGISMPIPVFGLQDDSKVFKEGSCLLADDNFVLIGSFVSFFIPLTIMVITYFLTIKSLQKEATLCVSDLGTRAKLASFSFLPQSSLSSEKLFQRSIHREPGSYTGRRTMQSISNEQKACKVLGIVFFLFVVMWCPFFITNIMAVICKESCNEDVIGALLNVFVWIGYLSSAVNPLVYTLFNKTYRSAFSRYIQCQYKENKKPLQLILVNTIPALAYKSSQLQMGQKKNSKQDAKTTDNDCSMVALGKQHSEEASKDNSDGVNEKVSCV

For the compound `CN(C)CCc1c[nH]c2cc3c(cc12)OCC3` [Example P-1, 2-(3,5-dihydro-2H-furo[2,3-f]indol-7-yl)-N,N-dimethylethan-1-amine], the Emax (in general, the maximal effect, on the per cent scale that the assay sets) in assay [1] (setting [4]) worked out at 2.92%; in assay [2] (setting [6]), 63.9%; in assay [3] (setting [6]) it was 82.3%. For the same compound, the EC50 (commonly the concentration needed to bring the measured effect to its halfway point) in assay [1] (setting [5]) is greater than 10000 nM; in assay [2] (setting [7]), 139 nM; in assay [3] (setting [8]), 134 nM.
As for `CN(C)CCc1c[nH]c2cc3ccoc3cc12` [Example P-2, 2-(5H-Furo[2,3-f]indol-7-yl)-N,N-dimethylethan-1-amine], the results for the Emax in assay [1] (setting [4]), in assay [2] (setting [6]) and in assay [3] (setting [6]) were -1.07%, 46.5% and 80.6%, respectively. The EC50 in assay [1] (setting [5]) was greater than 10000 nM; in assay [2] (setting [7]), 207 nM; in assay [3] (setting [8]), 56.8 nM.
As for `CN(C)CCc1c[nH]c2ccc3c(c12)OCC3` [Example P-3, 2-(3,6-dihydro-2H-furo[2,3-e]indol-8-yl)-N,N-dimethylethan-1-amine], the Emax in assay [1] (setting [4]) is 13.8%; in assay [2] (setting [6]), 81%; in assay [3] (setting [6]), 76.4%. Moreover, the figures for the EC50 in assay [1] (setting [5]), in assay [2] (setting [7]) and in assay [3] (setting [8]) were greater than 10000 nM, 9.73 nM and 16.2 nM, respectively.
As for `CN(C)CCc1c[nH]c2cc3occc3cc12` [Example P-4, 2-(7H-furo[3,2-f]indol-5-yl)-N,N-dimethylethan-1-amine], the EC50 was greater than 10000 nM in assay [1], 9.39 nM in assay [2] and 6.11 nM in assay [3]. Further, the results for the Emax in assay [1] (setting [4]), in assay [2] (setting [6]) and in assay [3] (setting [6]) were 4.68%, 70.4% and 78.9%, respectively.
Turning to `COc1ccc2[nH]cc(CCN(C)C)c2c1C` [Example P-6, 2-(5-methoxy-4-methyl-1H-indol-3-yl)-N,N-dimethylethan-1-amine], the Emax in assay [1] (setting [4]) stood at 11.3%; in assay [2] (setting [6]), 64.1%; in assay [3] (setting [6]) it was 73.6%. In addition, the values for the EC50 in assay [1] (setting [5]), in assay [2] (setting [7]) and in assay [3] (setting [8]) were greater than 10000 nM, 124 nM and 303 nM, respectively.
As for `COc1cc2c(CCN(C)C)c[nH]c2cc1C` [Example P-7, 2-(5-methoxy-6-methyl-1H-indol-3-yl)-N,N-dimethylethan-1-amine], the Emax in assay [1] (setting [4]) was 1.71%; in assay [2] (setting [6]), 81.9%; in assay [3] (setting [6]) it was 81.1%. Moreover, the figures for the EC50 in assay [1] (setting [5]), in assay [2] (setting [7]) and in assay [3] (setting [8]) were greater than 10000 nM, 15.8 nM and 110 nM, respectively.
For `COc1c(C)ccc2[nH]cc(CCN(C)C)c12` [Example P-9, 2-(4-methoxy-5-methyl-1H-indol-3-yl)-N,N-dimethylethan-1-amine], the Emax in assay [1] (setting [4]) was determined as 17.3%; in assay [2] (setting [6]), 65%; in assay [3] (setting [6]), 80.7%. For the same compound, the concentration giving a half-maximal response (EC50) is greater than 10000 nM in assay [1] (setting [5]), 24.6 nM in assay [2] (setting [7]) and 6.23 nM in assay [3] (setting [8]).
`Cc1ccc2[nH]cc(CCN(C)C)c2c1O` [Example P-10, 3-(2-(dimethylamino)ethyl)-5-methyl-1H-indol-4-ol]: the Emax in assay [1] (setting [4]) is -0.21%; in assay [2] (setting [6]), 63.1%; in assay [3] (setting [6]), 71.2%. Further, the EC50 is greater than 10000 nM in assay [1] (setting [5]), 55.1 nM in assay [2] (setting [7]) and 72.8 nM in assay [3] (setting [8]).
For the compound `Cc1cc(O)c2c(CCN(C)C)c[nH]c2c1` [Example P-12, 3-(2-(dimethylamino)ethyl)-6-methyl-1H-indol-4-ol], the Emax in assay [1] (setting [4]) came to 1.23%; in assay [2] (setting [6]) it was 67.8%; in assay [3] (setting [6]), 69.3%. For the same compound, the EC50 in assay [1] (setting [5]) was greater than 10000 nM; in assay [2] (setting [7]) it was 80.4 nM; in assay [3] (setting [8]), 144 nM.
As to `COc1ccc(C)c2[nH]cc(CCN(C)C)c12` [Example P-13, 2-(4-methoxy-7-methyl-1H-indol-3-yl)-N,N-dimethylethan-1-amine], the Emax came out at 0.67% in assay [1] (setting [4]), 36.1% in assay [2] (setting [6]) and 69.5% in assay [3] (setting [6]). The EC50 was greater than 10000 nM in assay [1] (setting [5]), 107 nM in assay [2] (setting [7]) and 56 nM in assay [3] (setting [8]).
In the case of `COc1cc(F)cc2[nH]cc(CCN(C)C)c12` [Example P-14, 2-(6-fluoro-4-methoxy-1H-indol-3-yl)-N,N-dimethylethan-1-amine], the Emax in assay [1] (setting [4]) is 0.17%; in assay [2] (setting [6]) it was 87.2%; in assay [3] (setting [6]) it was 75.7%. Further, the EC50 is greater than 10000 nM in assay [1] (setting [5]), 12.9 nM in assay [2] (setting [7]) and 2.6 nM in assay [3] (setting [8]).
For the compound `COc1ccc2[nH]cc(CCN(C)C(C)C)c2c1C` [Example P-38, N-(2-(5-methoxy-4-methyl-1H-indol-3-yl)ethyl)-N-methylpropan-2-amine], the Emax in assay [1] (setting [4]) worked out at 45.4%; in assay [2] (setting [6]) it was 83.3%; in assay [3] (setting [6]) it was 23.7%. The concentration giving a half-maximal response (EC50) in assay [1] (setting [5]) is 659 nM; in assay [2] (setting [7]), 189 nM; in assay [3] (setting [8]) it was greater than 10000 nM.
`CCN(CCc1c[nH]c2ccc(OC)c(C)c12)C(C)C` [Example P-40, N-ethyl-N-(2-(5-methoxy-4-methyl-1H-indol-3-yl)ethyl)propan-2-amine]: the Emax worked out at 33.8% in assay [1] (setting [4]), 78.4% in assay [2] (setting [6]) and 0.71% in assay [3] (setting [6]). The EC50 in assay [1] (setting [5]) is greater than 10000 nM; in assay [2] (setting [7]) it was 894 nM; in assay [3] (setting [8]), greater than 10000 nM.
With `COc1cc2c(CCN(C)C(C)C)c[nH]c2cc1C` [Example P-44, N-(2-(5-methoxy-6-methyl-1H-indol-3-yl)ethyl)-N-methylpropan-2-amine], the Emax in assay [1] (setting [4]) worked out at 7.11%; in assay [2] (setting [6]), 72.6%; in assay [3] (setting [6]), 70.8%.
Consider `CCN(CC)CCc1c[nH]c2cc(C)c(OC)cc12` [Example P-45, N,N-diethyl-2-(5-methoxy-6-methyl-1H-indol-3-yl)ethan-1-amine], for which the “5-HT2B Emax” value in assay [1] (setting [4]) is 23.83%. For the same compound, the EC50 is 846 nM in assay [1] (setting [5]), 78.2 nM in assay [2] (setting [7]) and 700 nM in assay [3] (setting [8]). Besides, the “5-HT2A Emax” value in assay [2] (setting [6]) is recorded as 81.54%. Moreover, the “5-HT2C Emax” value in assay [3] (setting [6]) came out at 84.59%.
Consider `CCCN(CC)CCc1c[nH]c2cc(C)c(OC)cc12` [Example P-46, N-ethyl-N-(2-(5-methoxy-6-methyl-1H-indol-3-yl)ethyl)propan-1-amine], for which the “5-HT2B Emax” value in assay [1] (setting [4]) was 37.67%. For the same compound, the half-maximal effective concentration (EC50) in assay [1] (setting [5]) was found to be 524 nM; in assay [2] (setting [7]) it was 33.3 nM; in assay [3] (setting [8]) it was 778 nM. Further, the “5-HT2A Emax” value in assay [2] (setting [6]) came out at 86.81%. Moreover, the “5-HT2C Emax” value in assay [3] (setting [6]) turned out to be 82.79%.
`CCN(CCc1c[nH]c2cc(C)c(OC)cc12)C(C)C` [Example P-47, N-ethyl-N-(2-(5-methoxy-6-methyl-1H-indol-3-yl)ethyl)propan-2-amine]: the Emax came to 43.2% in assay [1] (setting [4]), 64.7% in assay [2] (setting [6]) and 80.8% in assay [3] (setting [6]).
In the same order, the values of `CCCN(CCC)CCc1c[nH]c2cc(C)c(OC)cc12` [Example P-48, N,N-dipropyl-2-(5-methoxy-6-methyl-1H-indol-3-yl)ethan-1-amine] are 56.8%, 77.5% and 74%.
For `COc1cc2c(CCN(C(C)C)C(C)C)c[nH]c2cc1C` [Example P-49, N-isopropyl-N-(2-(5-methoxy-6-methyl-1H-indol-3-yl)ethyl)propan-2-amine], in that order: 74.8%, 83.5% and 87%.
Consider `COc1cc(C)c2[nH]cc(CCN(C)C)c2c1` [Example P-50, 2-(5-methoxy-7-methyl-1H-indol-3-yl)-N,N-dimethylethan-1-amine], for which the results for the Emax in assay [1] (setting [4]), in assay [2] (setting [6]) and in assay [3] (setting [6]) were 0.5%, 66.2% and 56.4%, respectively. Moreover, the concentration for a half-maximal effect (EC50) is greater than 10000 nM in assay [1] (setting [5]), 64 nM in assay [2] (setting [7]) and 538 nM in assay [3] (setting [8]).
For the compound `CCCN(C)CCc1c[nH]c2c(C)cc(OC)cc12` [Example P-52, N-(2-(5-methoxy-7-methyl-1H-indol-3-yl)ethyl)-N-methylpropan-1-amine], the Emax turned out to be 1.37% in assay [1] (setting [4]), 58% in assay [2] (setting [6]) and 44.5% in assay [3] (setting [6]). Also, the EC50 is greater than 10000 nM in assay [1] (setting [5]), 161 nM in assay [2] (setting [7]) and 529 nM in assay [3] (setting [8]).
For `CCN(CC)CCc1c[nH]c2c(C)cc(OC)cc12` [Example P-54, N, N-diethyl-2-(5-methoxy-7-methyl-1H-indol-3-yl)ethan-1-amine], the results for the Emax in assay [1] (setting [4]), in assay [2] (setting [6]) and in assay [3] (setting [6]) were 7.69%, 82.8% and 58%, respectively. Besides, the EC50 in assay [1] (setting [5]) was greater than 10000 nM; in assay [2] (setting [7]), 249 nM; in assay [3] (setting [8]), 1750 nM.
